Data on 16 compounds can be found in patent US20250122219A1 (priority 2023, published 2025).

The subject of series [1] is HIV-1 (IIIB). As to the kind of experiment: Antiviral assay in MT-4 cells. The series is classed as cell-based. The following applies: for pEC50: Human immunodeficiency virus 1, MT4, 120 h, HIV-1 IIIB in MT-4 cells, 5 days incubation, Cell Titer Glo, read-out: MT4 EC50; for EC50: Human immunodeficiency virus 1, IIIB, MT4, 120 h, read-out: MT4 EC50 (nM). The protocol: (§1) Compounds were tested in a high-throughput 384-well assay format for their ability to inhibit the replication of HIV-1 (IIIB) in MT-4 cells. Compounds were serially diluted (1.3) in DMSO on 384-well polypropylene plates and further diluted 200-fold into complete RPMI media (10% FBS, 1% P/S) using the Biotek Micro Flow and Labcyte ECHO acoustic dispenser. Each plate contained up to 8 test compounds, with negative (No Drug Control) and 5 μM AZT positive controls. MT-4 cells were pre-infected with 10 μL of either RPMI (mock-infected) or a fresh 1:250 dilution of HIV-1 IIIB concentrated virus stock. Infected and uninfected MT-4 cells were further diluted in complete RPMI media and added to each plate using a Micro Flow dispenser. After 5 days incubation in a humidified and temperature controlled incubator (37° C.), Cell Titer Glo (Promega) was added to the assay plates and chemiluminescence read using an Envision plate-reader.

Series [2] can be described thus: Cytotoxicity assay in MT-4 cells. It is filed as cell-based. The settings on record: human; uninfected MT-4 cells, 5 days incubation, Cell Titer Glo; read-out: MT4 CC50. The protocol: as §1
Assays were performed as above except uninfected MT-4 cells were added to each well containing test compound. In addition, […] puromycin was added to the last column of each assay plate to assess a base level of cytotoxicity.

pEC50: −log10 of the molar value. Read-outs that look alike come from different tables or passages of the source.

Turning to `COCCOC(=O)Oc1c2n(cc(C(=O)NCc3ccc(F)cc3F)c1=O)[C@@H]1CN(C2=O)[C@@H](C)CC[C@]12CC(OC)=NO2` [Example 1, (3′S,5S,7′R)-10′-((2,4-difluorobenzyl)carbamoyl)-3-methoxy-3′-methyl-1′,11′-dioxo-1′,4′,5′,11′-tetrahydro-3′H,4H,7′H-spiro[isoxazole-5,6′-[2,7]methanopyrido[1,2-a][1],4diazonin]-12′-yl (2-methoxyethyl) carbonate], the pEC50 in series [1] was 8.83. The CC50 at 5 days in series [2] amounted to 10.9 µM. Regarding `COCCOCCOC(=O)Oc1c2n(cc(C(=O)NCc3ccc(F)cc3F)c1=O)[C@@H]1CN(C2=O)[C@@H](C)CC[C@]12CC(OC)=NO2` [Example 2, (3′S,5S,7′R)-1O′-((2,4-difluorobenzyl)carbamoyl)-3-methoxy-3′-methyl-1′,11′-dioxo-1′,4′,5′,11′-tetrahydro-3′H,4H,7′H-spiro[isoxazole-5,6′-[2,7]methanopyrido[1,2-a][1,4]diazonin]-12′-yl (2-(2-methoxyethoxy)ethyl) carbonate], the half-maximal effective concentration (EC50) in series [1] is 0.79 nM. Also, the CC50 at 5 days in series [2] is 11.5 µM.

Turning to `COCCOCCOC(=O)OCOc1c2n(cc(C(=O)NCc3ccc(F)cc3F)c1=O)[C@@H]1CN(C2=O)[C@@H](C)CC[C@]12CC(OC)=NO2` [Example 4, (((3′S,5S,7′R)-10′-((2,4-difluorobenzyl)carbamoyl)-3-methoxy-3′-methyl-1′,11′-dioxo-1′,4′,5′,11′-tetrahydro-3′H,4H,7′H-spiro[isoxazole-5,6′-[2,7]methanopyrido[1,2-a][1,4]diazonin]-12′-yl)oxy)methyl (2-(2-methoxyethoxy)ethyl) carbonate], the negative logarithm of the EC50 (pEC50) in series [1] was 7.81. For the same compound, in series [2], the cytotoxic concentration (CC50) at 5 days was not below 50 µM. Taken in the same sequence, the figures for `CCCCCCCCCCCCCCCCCC(=O)Oc1c2n(cc(C(=O)NCc3ccc(F)cc3F)c1=O)[C@@H]1CN(C2=O)[C@@H](C)CC[C@]12CC(OC)=NO2` [Example 6, (3′S,5S,7′R)-10′-((2,4-difluorobenzyl)carbamoyl)-3-methoxy-3′-methyl-1′,11′-dioxo-1′,4′,5′,11′-tetrahydro-3′H,4H,7′H-spiro[isoxazole-5,6′-[2,7]methanopyrido[1,2-a][1,4]diazonin]-12′-yl stearate] were 8.02 and not below 50 µM. The corresponding values for `CCCCC/C=C\C/C=C\CCCCCCCC(=O)Oc1c2n(cc(C(=O)NCc3ccc(F)cc3F)c1=O)[C@@H]1CN(C2=O)[C@@H](C)CC[C@]12CC(OC)=NO2` [Example 7, (3′S,5S,7′R)-10′-((2,4-difluorobenzyl)carbamoyl)-3-methoxy-3′-methyl-1′,11′-dioxo-1′,4′,5′,11′-tetrahydro-3′H,4H,7′H-spiro[isoxazole-5,6′-[2,7]methanopyrido[1,2-a][1,4]diazonin]-12′-yl (9Z,12Z)-octadeca-9,12-dienoate] are 8.13 and not below 50 µM.

On to `COCCOC(=O)Oc1c2n(cc(C(=O)NCc3ccc(F)cc3F)c1=O)[C@@H]1CN(C2=O)[C@@H](C)CC[C@]12CC(C)=NO2` [Example 9, (3′S,5S,7′R)-10′-((2,4-difluorobenzyl)carbamoyl)-3,3′-dimethyl-1′,11′-dioxo-1′,4′,5′,11′-tetrahydro-3′H,4H,7′H-spiro[isoxazole-5,6′-[2,7]methanopyrido[1,2-a][1,4]diazonin]-12′-yl (2-methoxyethyl) carbonate], for which the negative-log EC50 (pEC50) in series [1] is 8.79. Besides, the CC50 at 5 days in series [2] is 19.6 µM. Taken in the same sequence, the figures for `CCCCCCCCCCCCCC(=O)Oc1c2n(cc(C(=O)NCc3ccc(F)cc3F)c1=O)[C@@H]1CN(C2=O)[C@@H](C)CC[C@]12CC(C)=NO2` [Example 13, (3′S,5S,7′R)-10′-((2,4-difluorobenzyl)carbamoyl)-3,3′-dimethyl-1′,11′-dioxo-1′,4′,5′,11′-tetrahydro-3′H,4H,7′H-spiro[isoxazole-5,6′-[2,7]methanopyrido[1,2-a][1,4]diazonin]-12′-yl tetradecanoate] were 8.32 and 13.4 µM. Taken in the same sequence, the figures for `CCCCCCCCCCCCCCCC(=O)Oc1c2n(cc(C(=O)NCc3ccc(F)cc3F)c1=O)[C@@H]1CN(C2=O)[C@@H](C)CC[C@]12CC(C)=NO2` [Example 14, (3′S,5S,7′R)-10′-((2,4-difluorobenzyl)carbamoyl)-3,3′-dimethyl-1′,11′-dioxo-1′,4′,5′,11′-tetrahydro-3′H,4H,7′H-spiro[isoxazole-5,6′-[2,7]methanopyrido[1,2-a][1,4]diazonin]-12′-yl palmitate] were 8.19 and not below 50 µM.

In the case of `CC1=NO[C@@]2(CC[C@H](C)N3C[C@H]2n2cc(C(=O)NCc4ccc(F)cc4F)c(=O)c(OCOC(=O)C(C)(C)C)c2C3=O)C1` [Example 18, (((3′S,5S,7′R)-10′-((2,4-difluorobenzyl)carbamoyl)-3,3′-dimethyl-1′,11′-dioxo-1′,4′,5′,11′-tetrahydro-3′H,4H,7′H-spiro[isoxazole-5,6′-[2,7]methanopyrido[1,2-a][1,4]diazonin]-12′-yl)oxy)methyl pivalate], the pEC50 in series [1] was 8.56. For the same compound, the CC50 at 5 days in series [2] came out at 20.1 µM. The corresponding values for `COCCOCCOC(=O)OCOc1c2n(cc(C(=O)NCc3ccc(F)cc3F)c1=O)[C@@H]1CN(C2=O)[C@@H](C)CC[C@]12CC(C)=NO2` [Example 23, (((3′S,5S,7′R)-10′-((2,4-difluorobenzyl)carbamoyl)-3,3′-dimethyl-1′,11′-dioxo-1′,4′,5′,11′-tetrahydro-3′H,4H,7′H-spiro[isoxazole-5,6′-[2,7]methanopyrido[1,2-a][1,4]diazonin]-12′-yl)oxy)methyl (2-(2-methoxyethoxy)ethyl) carbonate] are 8.55 and 27.3 µM.

As to `COC1=NO[C@@]2(CC[C@H](C)N3C[C@H]2n2cc(C(=O)NCc4ccc(F)cc4F)c(=O)c(OC(=O)/C=C/C(=O)O)c2C3=O)C1` [Example 25, (E)-4-(((3′S,5S,7′R)-10′-((2,4-difluorobenzyl)carbamoyl)-3-methoxy-3′-methyl-1′,11′-dioxo-1′,4′,5′,11′-tetrahydro-3′H,4H,7′H-spiro[isoxazole-5,6′-[2,7]methanopyrido[1,2-a][1,4]diazonin]-12′-yl)oxy)-4-oxobut-2-enoic acid], in series [1], the EC50 is 1.9 nM. Besides, in series [2], the half-maximal cytotoxic concentration (CC50) at 5 days came to 16.2 µM.

Take `COC[C@H](C)OC(=O)OCOc1c2n(cc(C(=O)NCc3ccc(F)cc3F)c1=O)[C@@H]1CN(C2=O)[C@@H](C)CC[C@]12CC(C)=NO2` [Example 215, (((3′S,5S,7′R)-10′-((2,4-difluorobenzyl)carbamoyl)-3,3′-dimethyl-1′,11′-dioxo-1′,4′,5′,11′-tetrahydro-3′H,4H,7′H-spiro[isoxazole-5,6′-[2,7]methanopyrido[1,2-a][1,4]diazonin]-12′-yl)oxy)methyl ((S)-1-methoxypropan-2-yl) carbonate]: in series [2], the cytotoxic concentration (CC50) at 5 days is not below 50 µM. Still for that read-out and setting: for `COC[C@H](C)OC(=O)OCOc1c2n(cc(C(=O)NCc3ccc(F)cc3F)c1=O)[C@@H]1CN(C2=O)[C@@H](C)CC[C@]12CC(OC)=NO2` [Example 216, (((3′S,5S,7′R)-10′-((2,4-difluorobenzyl)carbamoyl)-3-methoxy-3′-methyl-1′,11′-dioxo-1′,4′,5′,11′-tetrahydro-3′H,4H,7′H-spiro[isoxazole-5,6′-[2,7]methanopyrido[1,2-a][1,4]diazonin]-12′-yl)oxy)methyl ((S)-1-methoxypropan-2-yl) carbonate] the value was not below 50 µM; for `CO[C@H](C)COC(=O)OCOc1c2n(cc(C(=O)NCc3ccc(F)cc3F)c1=O)[C@@H]1CN(C2=O)[C@@H](C)CC[C@]12CC(C)=NO2` [Example 217, (((3′S,5S,7′R)-10′-((2,4-difluorobenzyl)carbamoyl)-3,3′-dimethyl-1′,11′-dioxo-1′,4′,5′,11′-tetrahydro-3′H,4H,7′H-spiro[isoxazole-5,6′-[2,7]methanopyrido[1,2-a][1,4]diazonin]-12′-yl)oxy)methyl ((R)-2-methoxypropyl) carbonate], 24.6 µM; for `CO[C@@H](C)COC(=O)OCOc1c2n(cc(C(=O)NCc3ccc(F)cc3F)c1=O)[C@@H]1CN(C2=O)[C@@H](C)CC[C@]12CC(C)=NO2` [Example 219, (((3′S,5S,7′R)-10′-((2,4-difluorobenzyl)carbamoyl)-3,3′-dimethyl-1′,11′-dioxo-1′,4′,5′,11′-tetrahydro-3′H,4H,7′H-spiro[isoxazole-5,6′-[2,7]methanopyrido[1,2-a][1,4]diazonin]-12′-yl)oxy)methyl ((S)-2-methoxypropyl) carbonate], 33.9 µM. Take `COC1=NO[C@@]2(CC[C@H](C)N3C[C@H]2n2cc(C(=O)NCc4ccc(F)cc4F)c(=O)c(OCOC(=O)OC[C@H](C)OC)c2C3=O)C1` [Example 220, (((3′S,5S,7′R)-10′-((2,4-difluorobenzyl)carbamoyl)-3-methoxy-3′-methyl-1′,11′-dioxo-1′,4′,5′,11′-tetrahydro-3′H,4H,7′H-spiro[isoxazole-5,6′-[2,7]methanopyrido[1,2-a][1,4]diazonin]-12′-yl)oxy)methyl ((S)-2-methoxypropyl) carbonate]: the half-maximal cytotoxic concentration (CC50) at 5 days in series [2] was determined as 41.6 µM.
